This is an account of results in patent US12285459B2, “Saposin-A derived peptides and uses thereof” (CHILDREN'S MEDICAL CENTER CORPORATION, priority 2011, dated 2025).

One assay relates to VEGF. Conditions: cited from earlier work.
Assay [1] deals with Tsp-1 and p53 expression in prostate fibroblasts. Put plainly: Tsp-1 and p53 expression in prostate fibroblasts treated with peptides, western blot. It counts as cell-based. Conditions: western blot; 10 ug/mL, 16 hours. As for the experimental part:
Methods of assaying the effects of a polypeptide described herein on Tsp-1 and p53 expression are described herein. Briefly, a control Psap alongside a test polypeptide, is applied to a cell culture of prostate fibroblasts. The conditioned media from PC3M-LN4 (LN4) and PC3 cells are used as controls, with PC3 as positive/stimulating control and LN4 as negative/inhibiting controls. After a period of incubation (˜16 h), the cells are harvested, rinsed, and lysed. The lysates are analyzed for the level of Tsp-1 and p53 expression by western blot analyses, with β-actin as the internal lysate protein loading control.
These peptides were used to treat prostate and lung fibroblasts in vitro at a concentration of 10 ug/mL for 16 hours in ATCC-specified media supplemented with 0.1% FBS. Tsp-1 and p53 expression was analyzed by western blot as described previously (Kang, Y., et al., (2003) Cancer Cell 3:537-549.)

Another assay relates to Tsp-1 expression. Conditions: previously shown; cited from earlier work.

No end group written: not given here.

In the case of `CN(C)c1ccc(/C=C2\C(=O)Nc3ccccc32)cc1` [SU 4312], the vessel formation entry in the assay on VEGF is “blocked”.
“CDWLPKPNMSASC (also: cyclized, mode not given here) [13-amino acid cyclized peptide spanning residues 35-47 of saposin A]”: the “stimulation of the expression of p53 and Tsp-1 in prostate fibroblasts” value in assay [1] was “able to stimulate the expression of p53 and Tsp-1”. Moreover, in the assay with Tsp-1 expression, the “stimulating Tsp-1 expression in vitro and in vivo” value was “capable of stimulating Tsp-1 expression in vitro and in vivo”.
